Measurements reported in patent US9856480B2, “Dnazyme for silencing the expression of EGFR” (DCB-USA LLC, priority 2013, dated 2018).
Strand notation (5' to 3'): a small letter for the sugar, then the base; units joined by * are phosphorothioate-linked, units joined directly phosphodiester-linked; [ ] holds rarer units or linkages, { } end groups; capitals alone tell only the bases. d = 2'-deoxy (DNA)

Columns and labels:
Assay type in all cases: cell-based, human
wild-type EGFR mRNA = test: Quantitative real-time PCR of EGFR mRNA knockdown; conditions: 100 nM, 48 h
Experimental: A549, CL1-5, H1975, or CL97 was seeded onto 6-well at 3×10^5 cells/well and cultured overnight. Then, cells were separately treated with 100 nM DzControl or DzT790M-1 with lipofectamine 2000 (Invitrogen). After 48 h, total mRNA were extracted from DNAzyme-treated cells by Mestrisol following manufacturer's protocol. cDNA were synthesized by using RT III kit with random hexamers as primers (Invitrogen). The PCR primers were synthesized by Genomics BioSci & Tech (Taipei, Taiwan). The sequences of PCR primers are listed as follows: […]
The parameters for PCR were: 95° C. for 10 min, then 25 cycles of PCR at 95° C. for 30 s, 60° C. for 30 s, and 72° C. for 60 s. 3% agarose gels were used for electrophoresis of PCR products. The intensity of bands were quantified by Image J. Quantitative RT-PCR was performed on 40 ng total mRNA with the LightCycler 480 system (Roche). The PCR mix contained 5 μl of 2× Probe Master mix, 100 nM of UPL probe (Roche Diagnostics, Penzberg, Germany), 200 nM of forward primer and reverse primer, 0.1 ul RNAseout (Invitrogen), and 0.025 ul RTIII enzyme (Invitrogen) in a total volume of 10 μl. PCR parameters were as follows: 50° C. for 40 min, then 45 cycles of PCR at 95° C. for 10 s, 60° C. for 10 s, and 72° C. for 2 s. Data were analyzed by LC480 software (Roche Diagnostics, Penzberg, Germany). The relative amount of EGFR mRNA was normalized to ACTB mRNA. The sequences of PCR primers are as follows: […]
To examine the allele selectivity of DzT790M-1, EGFR mRNA knockdown efficiency was detected in two cell lines harboring wild-type EGFR (A549, CL1-5) and two cell lines containing EGFR T790M mutation (H1975, CL97). A549, CL1-5, H1975, or CL97 was seeded onto 6-well at 3×10^5 cells/well and cultured overnight. […]
Then, A549 and PC9 cells were separately treated with 50, 100, or 150 nM control DNAzyme or DzEGFR—ΔE746-A750 with Lipofectamine 2000 for 48 h. […] Quantitative RT-PCR was performed on 40 ng total mRNA with the LightCycler 480 system (Roche). […] Data were analyzed by LC480 software (Roche Diagnostics). […]

[1] = test system: A549 cells (EGFR wild-type); test: Cell proliferation assay (cell counting); conditions: 100 nM, 0-72 h after transfection
Experimental: (§1) A549, CL1-5, H1975, or CL97 was seeded onto 6-well and cultured overnight. Then, cells were separately treated with 100 nM DzControl or DzT790M-1 with lipofectamine 2000 (Invitrogen). Cells were trypsinized and counted at 0 h, 24 h, 48 h, or 72 h after transfection.
(§2) EGFR and downstream signaling pathway regulates important cell functions including cell proliferation and survival. In order to examine functional effects of DzT790M-1 on cell survival, the number of cells was counted after DzControl or DzT790M-1 transfection respectively. In A549 and CL1-5 cells (EGFR wild-type), the rate of cell proliferation or the cell number was not different between DzControl and DzT790M-1 transfected group (FIGS. 4A and 4B). In H1975 and CL97 cells (EGFR T790M), DzControl transfected cells were continued to grow after transfection when the number of DzT790M-1 treated cells was reduced (FIGS. 4C and 4D). In order to figure out whether DzT790M-1 treated cells undergoes cell apoptosis, immunoblotting against cleaved form of PARP and immunostaining of annexin V and PI were performed. The cleavage of PARP is caused by increased activity of caspase-3 and serves as a marker for cell apoptosis. […] While only 3.6% of cells underwent apoptosis and 12.4% of cells were dead in DzControl transfected H1975 cells, 18.6% of cells were detected as apoptotic cells and 32.6% of cells were annexin V and PI double positive in DzT790M-1 treated group (FIG. 4F).

[2] = test system: CL1-5 cells (EGFR wild-type); test: Cell proliferation assay (cell counting); conditions: 100 nM, 0-72 h after transfection
Experimental: as §1, §2

CL97 cells (EGFR T790M) = test: Cell proliferation assay (cell counting); conditions: 100 nM, 0-72 h after transfection
Experimental: as §1, §2

H1975 cells (EGFR T790M) = test: Cell proliferation assay (cell counting); conditions: 100 nM, 0-72 h after transfection
Experimental: as §1, §2

DzT790M-1: 10-23 DNAzyme against EGFR T790M mRNA, arms 10/4, phosphorothioate ends: AGCTGCATGAGGCTAGCTACAACGAGAGC (DNA dA*dGdCdTdGdCdAdTdGdAdGdGdCdTdAdGdCdTdAdCdAdAdCdGdAdGdAdG*dC; further chemistry not fully specified)
wild-type EGFR mRNA knockdown (wild-type EGFR mRNA; A549 cells): 1.1%
wild-type EGFR mRNA knockdown (wild-type EGFR mRNA; CL1-5 cells): 19.2%
rate of cell proliferation or cell number vs DzControl transfected group [1]: not different
rate of cell proliferation or cell number vs DzControl transfected group [2]: not different
number of cells after transfection (CL97 cells (EGFR T790M)): reduced
number of cells after transfection (H1975 cells (EGFR T790M)): reduced
